Experimental data taken from patent US20130260376A1, “Prediction of and Monitoring Cancer Therapy Response Based on Gene Expression Profiling” (WHITEHEAD INSTITUTE FOR BIOMEDICAL RESEARCH, priority 2010, published 2013).

System: HMLER breast cancer populations
Test: Microarray gene expression / Gene Set Enrichment Analysis of HMLER cells after drug treatment versus DMSO control
Assay type: cell-based
Details: relative to DMSO control, GSEA; for collective expression level of the genes in Table 1 (EMT-associated genes) and subsets thereof upon treatment: FIGS. 2 and 5; for collective expression level of the genes in Table 2 (non-EMT-associated genes) and subsets thereof upon treatment: FIGS. 3 and 4
Method: The collective expression levels of the genes in Tables 1 and 2 after paclitaxel treatment were then determined. For these analyses, which are shown in FIGS. 2 and 3, collections of gene subsets of various sizes were chosen.
Next, identical analyses as those described above were performed in the context of treatment with a different anti-cancer agent—salinomycin—that was previously identified as specifically killing invasive cancer stem cells. The opposite expression change (relative to paclitaxel) was observed upon treatment with salinomycin. […] As a consequence, measurement of the expression of the genes in Table 1 (or any appropriate subsets thereof identified according to the methods disclosed herein) would serve to identify tumors that would be responsive to a CSS agent (e.g., salinomycin treatment) when applied as a single agent.

Row | SMILES | collective expression level of the genes in Table 1 (EMT-associated genes) and subsets thereof upon treatment | collective expression level of the genes in Table 2 (non-EMT-associated genes) and subsets thereof upon treatment
1 | CC(=O)O[C@H]1C(=O)[C@@]2(C)[C@H]([C@H](OC(=O)c3ccccc3)[C@]3(O)C[C@H](OC(=O)[C@H](O)[C@@H](NC(=O)c4ccccc4)c4ccccc4)C(C)=C1C3(C)C)[C@]1(OC(C)=O)CO[C@@H]1C[C@@H]2O [paclitaxel] | over-expressed | under-expressed
2 | CC[C@@H](C(=O)[C@@H](C)[C@@H](O)[C@H](C)[C@@H]1O[C@@H]([C@@H](CC)C(=O)O)CC[C@@H]1C)[C@H]1O[C@]2(C=C[C@@H](O)[C@]3(CC[C@@](C)([C@H]4CC[C@](O)(CC)[C@H](C)O4)O3)O2)[C@H](C)C[C@@H]1C [salinomycin] | under-expressed | over-expressed
